Results from publication PMC6172251, “Two Engineered OBPs with opposite temperature-dependent affinities towards 1-aminoanthracene” (Scientific Reports, 2018).

Assays:
[1] = target: T1, OBP::GQ20::SP-DS3, engineered from OBP-I (Sus scrofa, UniProt P81245); assay: direct fluorescence titration with 1-AMA (ex […] nm, em […] nm), […] °C; Kd […] at […] °C; type: binding
T1 construct: fusion of OBP-I with a linker of 20 glycine-glutamine repeats (GQ20) and the anchor peptide SP-DS3 ([…]); His-tag at N-terminal
T1 sequence (P81245 1-157): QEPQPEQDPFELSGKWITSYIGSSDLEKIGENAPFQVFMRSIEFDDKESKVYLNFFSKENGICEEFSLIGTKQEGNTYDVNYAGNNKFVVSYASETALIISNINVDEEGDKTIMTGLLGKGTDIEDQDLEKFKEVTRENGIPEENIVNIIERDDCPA

[2] = target: T2, truncated OBP (tOBP), engineered from OBP-I (Sus scrofa, UniProt P81245, F44A/F66A); assay: as above; type: binding
T2 construct: OBP-I with deletion of the first 16 residues of the N-terminal and F44A and F66A; His-tag at N-terminal
T2 sequence (P81245 17-157 F44A/F66A): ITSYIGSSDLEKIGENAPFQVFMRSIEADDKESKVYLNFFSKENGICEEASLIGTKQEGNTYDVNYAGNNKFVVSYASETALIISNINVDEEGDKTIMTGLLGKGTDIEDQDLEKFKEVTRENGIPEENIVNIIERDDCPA

Nc1cccc2cc3ccccc3cc12 [1-AMA, 1-aminoanthracene]
Kd [1]: 580 nM | Kd [2]: 450 nM
